From patent US5849777A, “Cell differentiation induction with mevalonate and mevalonolactone derivatives” (University of New Mexico, priority 1995, dated 1998)
Blank lines part the entries; values can stand above or below the compound they belong to.

Columns and labels:
[1] = tested on: Human peripheral blood leukocytes; assay: IgG production by human peripheral blood leukocytes (HPBL) in vitro; type: cell-based; conditions: for immune enhancement (in words): Examples II and Table I
Protocol: Human peripheral blood leukocytes were cultured in a standard tissue culture medium. Aliquots of these cultured cells (1,000,000 cells/ml medium) were cultured for 6 hours, and the specified amount of Formula II compound was added; the cells were then cultured for an additional 90 hours. Sheep red blood cells (SRBC) conditioned with class-specific (IgG) goat anti-human antiserum (1:400) for 2 hours; then guinea pig complement (2%) for 2 hours were conjugated to Protein A as described in detail in Radioimaging and Radioimmunotherapy, Eds. S. W. Burchiel and B. A. Rhodes, Elsevier Science Publishing; New York, 1983, pp. 125-127, incorporated herein by reference.
1. Concentration inhibiting nonspecific IgG production below normal production.

[2] = molecular target: T1, rat liver HMG-COA reductase (Rattus norvegicus, UniProt P51639); assay: inhibition of rat liver HMG-CoA reductase activity; type: biochemical; conditions: read-out: IC50 (concentration for 50% inhibition of rat liver HMG-COA reductase activity); Table I
T1 construct: rat liver HMG-COA reductase activity; from tissue; host or cells: rat liver
T1 sequence (P51639 1-887): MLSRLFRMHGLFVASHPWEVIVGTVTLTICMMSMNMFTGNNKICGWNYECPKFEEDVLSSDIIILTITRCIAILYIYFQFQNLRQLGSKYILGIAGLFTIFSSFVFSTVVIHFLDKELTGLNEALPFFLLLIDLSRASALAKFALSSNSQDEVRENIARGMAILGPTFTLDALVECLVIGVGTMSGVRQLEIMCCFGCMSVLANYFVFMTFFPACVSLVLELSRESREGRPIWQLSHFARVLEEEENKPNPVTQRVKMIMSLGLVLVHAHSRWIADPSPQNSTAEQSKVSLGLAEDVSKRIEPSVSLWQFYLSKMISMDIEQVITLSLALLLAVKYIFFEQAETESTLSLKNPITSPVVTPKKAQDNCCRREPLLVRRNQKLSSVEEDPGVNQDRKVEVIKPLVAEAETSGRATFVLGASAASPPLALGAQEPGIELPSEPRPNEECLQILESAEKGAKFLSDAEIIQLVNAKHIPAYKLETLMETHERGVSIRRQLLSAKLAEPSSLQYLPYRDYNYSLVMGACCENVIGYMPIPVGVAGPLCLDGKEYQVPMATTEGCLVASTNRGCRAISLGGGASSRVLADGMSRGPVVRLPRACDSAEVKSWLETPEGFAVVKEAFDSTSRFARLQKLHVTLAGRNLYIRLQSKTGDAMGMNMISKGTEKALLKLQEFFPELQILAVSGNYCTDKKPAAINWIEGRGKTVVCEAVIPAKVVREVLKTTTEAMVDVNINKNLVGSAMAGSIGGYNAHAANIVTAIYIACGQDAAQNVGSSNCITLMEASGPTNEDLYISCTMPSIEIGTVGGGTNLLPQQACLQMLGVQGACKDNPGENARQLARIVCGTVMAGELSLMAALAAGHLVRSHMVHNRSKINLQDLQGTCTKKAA
Source text: While a number of the compounds of the Formula I are known HMG-CoA reductase inhibitors, there is no apparent correlation between HMG-CoA reductase inhibitory activity and promotion of differentiation activity according to the invention. […] Accordingly, useful guidelines for selecting compounds having optimal differentiation-promoting activity according to the invention broadly comprise selecting compounds of the Formula I having the specified stereochemical configuration and an in vitro immunological activity as set forth in the in vitro assay of Example II, of at least about 3-fold.

Canine glioma cells [3] = assay: inhibition of thymidine incorporation (I50%); type: cell-based; conditions: Canis lupus familiaris, Glioma cell, read-out: I50%
Protocol: (§1) Cytotoxicity was determined as a function of simple survival (T50 %), adherence (ADH50 %) and thymidine incorporation (I50%) of the cells.
Estimates of the I50% of the various drugs tested on thymidine incorporation of canine glioma cells in culture.

Canine glioma cells [4] = assay: cytotoxicity as simple survival (T50%); type: cell-based; conditions: Canis lupus familiaris, Glioma cell, read-out: T 50%
Protocol: as §1
(§2) Estimates of the 50% inhibitory concentrations of the various drugs tested on simple survival (T50%) and adherence (ADH50%) for canine glioma cells.

Canine glioma cells [5] = assay: inhibition of adherence (ADH50%); type: cell-based; conditions: Canis lupus familiaris, Glioma cell
Protocol: as §1, §2

- IC50 [2]: 1.35 µM
Structure (SMILES): CC(C)c1nc(-c2ccccc2)n(-c2ccc(F)cc2)c1/C=C/[C@@H](O)C[C@H](O)CC(=O)O [IIb]
- Inhibitory Concentration (concentration inhibiting nonspecific IgG production below normal production) ([1]; HPBL, additional 90 h culture): none found

Structure (SMILES): CC(C)c1nc(-c2ccccc2)n(-c2ccc(F)cc2)c1/C=C/[C@@H](O)C[C@@H](O)CC(=O)O [IId, reference compound]
- activation at 0.1 µM ([1]; Homo sapiens, Leukocyte, 90 h, 100 nM, read-out: Stimulation of IgG Production): 320%

- IC50 (Canine glioma cells [3]; 24 h exposure): 0.1 µM
- IC50 (Canine glioma cells [3]; 48 h exposure): 0.075 µM
- IC50 (Canine glioma cells [3]; 72 h exposure): 0.03 µM
- IC50 (Canine glioma cells [3]; 96 h exposure): 0.05 µM
- IC50 (Canine glioma cells [5]; 24 h exposure): 0.05 µM
- IC50 (Canine glioma cells [5]; 72 h exposure): 0.075 µM
- IC50 (Canine glioma cells [5]; 96 h exposure): 0.075 µM
Structure (SMILES): CC[C@H](C)C(=O)O[C@H]1CCC=C2C=C[C@H](C)[C@H](CC[C@@H]3C[C@@H](O)CC(=O)O3)[C@H]21 [compactin, reference compound]
- immune enhancement (in words) [1]: no immune enhancement
- IC50 (Canine glioma cells [4]; 24 h exposure): 0.5 µM
- IC50 (Canine glioma cells [4]; 72 h exposure): 0.2 µM
- IC50 (Canine glioma cells [4]; 96 h exposure): 0.35 µM

Structure (SMILES): CC[C@H](C)C(=O)O[C@H]1C[C@@H](C)C=C2C=C[C@H](C)[C@H](CC[C@@H]3C[C@@H](O)CC(=O)O3)[C@H]21 [lovastatin, reference compound]
- immune enhancement (in words) [1]: no immune enhancement
